Data taken from patent US20210198258A1, “INTEGRIN ANTAGONISTS” (Oxurion NV, priority 2018, published 2021).

How the values were obtained:
[1] = system: human umbilical vein endothelial cells (HUVECs); experiment: ORIS Cell Migration Assay; format: cell-based; conditions: HUVEC, fibronectin-coated plates, 24 h migration
Method: Endothelial cell wound healing is mediated by endothelial cell migration and proliferation, both critical components of the angiogenesis process, and is routinely used as a surrogate model for in vitro angiogenic potential. The ORIS™ Cell Migration Assay was used with human umbilical vein endothelial cells (HUVECs).
HUVEC cells (SCCE-001, Cat no. 1000519, Merck Chemicals) were cultured in T175 flasks (Cat no 353112, falcon) in EndoGro Growth Medium (SCME-003, Merck Chemicals) and split when they reached 90-100% confluence.
For the assay, cells were used at passage 2 to 4 after thawing and at 80-90% confluency. At the beginning of the day, the fibronectin-coated Oris™ Cell Migration Assay Plates (Cat no #CMAFN.I01, AMS Biotechnology) were removed from refrigeration and placed at RT for 1 h. […]
Just prior to the end of the incubation, a 4 μg/mL calcein AM (Cat no 354217, Beckton Dickinson) solution was prepared in pre-warmed HBSS (Cat no 14025, Gibco). […] After incubation the fluorescence was read at 494 nm excitation and 517 nm emission wavelengths using the Flexstation and the SofiMax Pro 5.4.5 software (Molecular Devices). The fluorescence was read from the bottom of the plates with the lid on to keep them sterile. The masks were then removed and pictures were taken with the Axiovert fluorescence microscope (Zeiss) using reflected light, GFP and a 2.5× objective.

[2] = system: RPE-choroid sclera explants; conditions: read-out: IC50 vessel outgrowth; murine choroid explants in fibrin gel, 3 to 4 days
Source text: The assay is based on a murine microvascular angiogenesis explant model, which closely mimics in viva choroidal angiogenesis. […] The choroidal explant model or briefly EMCA model allows for rapid evaluation of new anti-angiogenic therapeutics, with the additional benefit of excluding the potential lack of exposure often encountered when testing small molecules in animal eyes. RPE-choroid sclera explants (hereinafter referred to as choroid explants) are embedded in a three-dimensional fibrinogen/fibrin gel. Addition of serum-containing medium induces extensive endothelial cell sprout outgrowth into the matrix after 3 to 4 days in culture.
All experiments were performed using 4 to 5-weeks old male C57BL/6J mice (Charles River Laboratories France), housed under standard laboratory conditions according to a normal day/night rhythm with ad libitum access to food and water. […]
After 3 to 4 days, bright field pictures were taken at 2.5× magnification with the Axio Vert.A1 inverted microscope (Zeiss) using ZEN lite 2012 microscope software (Zeiss). […] Further analysis was performed in Microsoft Excel, where the sprouting area of endothelial organotypic culture was quantified by subtracting the area of the tissue explant from the total area occupied by the sprouts.

**Q.** For `CC(C)[C@H]1C(=O)N[C@@H](CCCN=C(N)N)C(=O)NCC(=O)N[C@@H](CC(=O)O)C(=O)N[C@H](Cc2ccccc2)C(=O)N1C` [Cilengitide], which IC50 [1] is on record?
**A.** 100 µM

**Q.** And the IC50 [2]?
**A.** ~300 µM
